Drawing on PMC10791743, “Selective CK1α degraders exert antiproliferative activity against a broad range of human cancer cell lines” (Nature Communications, 2024), this text covers Remaining and k for 1 molecule.

Common to all, as to type: in vitro ADME
Data set [1] is described as follows: Medium control without cells (hepatocyte stability assay). To be noted: 90 min, 1 μM.
Data set [2] is described as follows: Metabolic stability in cryopreserved hepatocytes, mouse. The following applies: 1 μM; for Remaining: Pooled Mouse Hepatocytes. On the procedure: (§1) page 34: UHPLC-MS/MS System: Chromatographic separation was performed on an Acquity UPLC BEH […] with 6500+ Qtrap system. […] software suite. The UPLC column was maintained at 55 °C. Mobile phase A was 0.1% formic acid in MilliQ H2O and Mobile phase B was 0.1% formic acid in acetonitrile. The flow rate was 0.9 […] The mass spectrometer was operated in positive-ion mode with electrospray ionization. MRM transition m/z […] plasma stability and plasma protein binding. The following MS parameters were employed for analyte measurements: ion spray voltage 5 kV, temperature 550 °C, gas 1 and gas 2 were 60, entrance potential (EP): 10 V, declustering potential (DP): 50 V, collision energy (CE): 27 V, and collision cell exit potential (CXP): 16 V. Metabolic Stability in mouse and human cryopreserved hepatocytes. 10 mM test compounds were provided by Compound Sample Group. Diluted 10 mM test compounds and 30 mM positive control compounds (7-ethoxycoumarin) to 1 mM and 3 mM with DMSO in 96-well plates. Diluted 1 mM test compounds and 3 mM positive control compounds to 100 μM and 300 μM dosing solutions with ACN. Cryopreserved cells were thawed, isolated and suspended in Incubation Medium, then diluted with pre-warmed Incubation Medium to 0.5 × 10^6cells/mL. Added 198 μL of pre-warmed cell suspensions in 96 -well plates. Transferred 125 μL of stop solution (acetonitrile containing 200 ng/mL tolbutamide and 200 ng/mL labetalol as internal standards) in a set of pre- labeled 96-well plates. Spike d 2 μL dosing solution to each well of 96 -well plates in duplicates. For T0 Samples, mix ed to achieve a homogenous suspension for about 1 min, then immediately transferred 25 μL of each sample into well containing 125 μL of ice -cold stop solution followed by mixing. Incubated all plates at 37°C in a 95% humidified incubator at 5% CO 2 to start the reactions page 35: with constant shaking at about 600 rpm. At 15, 30, 60 and 90 min, mixed samples and then transferred 25 μL of each sample at each time point to well containing 125 μL of ice -cold stop solution followed by mixing. Medium Control (MC) sample plates (labeled as T0-MC and T90- MC) were prepared at T0 and T90 by adding the same components to each well except cell suspensions. At each corresponding time point, stopped the reactions by removing the plates from incubator and mixing with 125 μL of ice-cold stop solution. Vortexed the plates immediately on a plate shaker at 500 rpm for 10 minutes. Then, centrifuge d all sample plates at 3220 x g for 20 min at 4°C. After centrifugation, 80 μL/well of supernatant in the sample plates were transferred to another set of pre-labeled 96-well plates which containing 240 μL of ultra pure water according to the plate map. Analytical plates were sealed and stored at 4°C until LC-MS/MS analysis. Thawing Medium: Williams' Medium E containing 5% fetal bovine serum and 30% Perc oll solution and other supplements. Incubation Medium: Williams' Medium E (no phenol red) containing 2 mM L-Glutamine and 25 mM HEPES. Stop Solution: Acetonitrile containing 200 ng/mL tolbutamide and labetalol as internal standards. Dilution Solution: Ultra-pure water. The remaining percents of test articles after incubation were calculated by the follow equations: Equation ( 6): Use equation of first order kinetics [NT] […] The data was […] concatenated with a reversed decoy database for evaluating False Discovery Rate (FDR). […]

Data set [3] in a line: Metabolic stability in cryopreserved hepatocytes, human. The following applies: Pooled Human Hepatocytes, 1 μM. As to the method:
as §1

`O=C1CCC(N2Cc3cc(Nc4noc5ccccc45)ccc3C2=O)C(=O)N1` (stereo not shown) [SJ001043149-3]: the Remaining in data set [1] was determined as 94.5%; in data set [2] (15 min) it was 83.3%; in data set [2] (30 min), 86.1%; in data set [2] (60 min) it was 89.6%; in data set [2] (90 min) it was 81.4%; in data set [3] (15 min), 110.2%. For the same molecule, the Remaining in data set [3] (30 min) was determined as 88.9%; in data set [3] (60 min), 93.8%; in data set [3] (90 min) it was 108.9%. In addition, the k in data set [2] (Pooled Mouse Hepatocytes (first result line, species inferred from Ln(Remaining))) came to 0.0013 min⁻¹.
